Laboratory results from patent US3941777A, “Compounds having juvenile hormone activity” (A/S Cheminova, priority 1973, dated 1976).
Converted amounts (≈) assume the structure as drawn.

Key:
Tenebrio molitor L. = assay: Tenebrio test: topical application to pupae, inhibition of adult characters; type: in vivo; settings: topical in acetone to abdomen of 0.5 to 2 hours old pupae; 27°C, 70% RH; ecdysis 5 to 7 days later; perfect adult 0%, perfect second pupa 100%
Experimental: The biological tests are examplified by tests on Tenebrio molitor L., Galleria mellonella L. and Culex pipiens L. Tenebrio test: The material in question is applied topically to the abdomen of 0.5 to 2 hours old pupae of the said specimen, as a solution in acetone. The pupae are held at 27°C and 70% RH, ecdysis occuring 5 to 7 days later. The degree of inhibition of adult characters is refered to an arbitrary scale, a morphologically perfect adult given the character 0%, a perfect second pupa 100%.

Culex pipiens L. = assay: Culex test: mature larvae, loss of 50% of the test animals; type: in vivo; settings: concentration producing a loss of 50% of the test animals, read-out: Culex test IC-50 eclos.
Experimental: Culex test: The compounds were tested on mature larvae of Culex pipiens. (IC-50 eclos.) in ppm.

SMILES	Tenebrio test ID-50 morph. (Tenebrio molitor L.)	LC50 (Culex pipiens L.) [µg/mL]
CC(C)=CCCC(C)=CCON=Cc1ccccc1 [Compound 1, Benzaldoxime-0-geranyl ether]	0,05 μg/pupa	< 1
CC(=CCON=Cc1ccccc1)CCC1OC1(C)C (stereo not drawn) [Compound 2, Benzaldoxime-O-epoxygeranyl ether]	> 0,1 μg/pupa	–
CCC(C)=CCCC(=CCON=Cc1ccccc1)CC [Compound 4, Benzaldoxime-O-(3-ethyl-7-methyl-2,6-nonadiene-1-yl)-ether]	0,01 μg/pupa	–
CC(C)=CCCC(C)=CCON=Cc1ccc2c(c1)OCO2 [Compound 5, Piperonaloxime-O-geranyl ether]	> 100 μg/pupa	1 (≈ 3.32 µM)
CC(C)=CCCC(C)=CCON=Cc1ccc(C)cc1 [Compound 6, p-Tolualdoxime-O-geranyl ether]	50 μg/pupa	10 (≈ 36.8 µM)
CC(C)=CCCC(C)=CCON=Cc1cccnc1 [Compound 7, 3-Pyridinealdoxime-O-geranyl ether]	10 μg/pupa	–
CC(C)=CCCC(C)CCON=Cc1ccccc1 (stereo not drawn) [Compound 8, Benzaldoxime-O-citronellyl ether]	> 100 μg/pupa	< 10
CCC(C)=CCON=Cc1ccc2c(c1)OCO2 [Compound 9, Piperonaloxime-O-(3-methyl-2-pentene-1-yl)-ether]	10 μg/pupa	0.02 (≈ 0.0809 µM)
CCC(C)=CCON=Cc1ccccc1 [Compound 10, Benzaldoxime-O-(3-methyl-2-pentene-1-yl)-ether]	> 100 μg/pupa	1 (≈ 4.92 µM)
CCC(C)=CCCON=Cc1ccc2c(c1)OCO2 [Compound 11, Piperonaloxime-O-(4-methyl-3-hexene-1-yl)-ether]	> 100 μg/pupa	0.5 (≈ 1.91 µM)
CCC(C)=CCCON=Cc1ccccc1 [Compound 12, Benzaldoxime-O-(4-methyl-3-hexene-1-yl)-ether]	> 100 μg/pupa	< 10
CC(C)=CCCC(C)=CCON=CCO [Compound 13, Glycollicaldoxime-O-geranyl ether]	50 μg/pupa	10 (≈ 47.3 µM)
CCOC(=O)C=NOCC=C(C)CCC=C(C)C [Compound 14, Glyoxylic acid ethylester aldoxime-O-geranyl ether]	1 μg/pupa	1 (≈ 3.95 µM)
CCOC(=O)C=NOCC=C(C)CCC1OC1(C)C (stereo not drawn) [Compound 15, Glyoxylic acid ethylester aldoxime-O-(epoxygeranyl)-ether]	1 μg/pupa	1 (≈ 3.71 µM)
CCOC(=O)C=NOCC=C(C)CCCC(C)(C)OCC [Compound 16, Glyoxylic acid ethylester aldoxime-O-(7-ethoxy-geranyl)-ether]	1 μg/pupa	1 (≈ 3.34 µM)
